Calls of active or inactive are those of the source. No cut-off for these calls is given here.
What was measured:
[1] = system: Mus musculus; assay: Antitumor activity against mouse KIF5B-RET BaF3 cells xenografted in nude mouse assessed as tumor regression at 10 mg/kg, po qd measured after 16 days; format: functional, organism-based; conditions: time 16.0 day
[2] = fCmax in nude mouse xenografted with KIF5B-RET BaF3 cells xenografted at 10 mg/kg, po qd for 14 days; format: ADME, organism-based; conditions: in vivo, 336 h, time 14 day
[3] = target: T1, Voltage-gated inwardly rectifying potassium channel KCNH2 (Homo sapiens, UniProt Q12809); assay: Displacement of [3H]-dofetilide from human ERG expressed in CHO cell after 90 mins by microbeta liquid scintillation counting method; format: cell-based
[4] = system: Mus musculus; assay: Antitumor activity against mouse KIF5B-RET BaF3 cells xenografted in nude mouse assessed as tumor regression at 30 mg/kg, po qd measured after 16 days; format: functional, organism-based; conditions: time 16.0 day
[5] = Half life in BALB/c mouse at 10 mg/kg, po measured by LC-MS/MS analysis; format: ADME, organism-based; conditions: in vivo
[6] = Cmax in BALB/c mouse at 2 mg/kg, iv measured by LC-MS/MS analysis; format: ADME, organism-based; parameters: route intravenous, dose 2 mg/kg; conditions: in vivo
[7] = Cmax in BALB/c mouse at 10 mg/kg, po measured by LC-MS/MS analysis; format: ADME, organism-based; parameters: route oral, dose 10 mg/kg; conditions: in vivo
[8] = target: T1, Voltage-gated inwardly rectifying potassium channel KCNH2; assay: Inhibition of human ERG expressed in CHO cells by manual patch clamp assay; format: cell-based
[9] = system: BaF3; assay: cells; conditions: Mus musculus, BaF3, 48 h
Description: Antiproliferative activity against mouse BaF3 cells assessed as reduction in cell proliferation incubated for 48 hrs by cell proliferation assay

[10] = Cmax in nude mouse xenografted with KIF5B-RET BaF3 cells xenografted at 10 mg/kg, po qd for 14 days; format: ADME, organism-based; parameters: route oral, time 14 day, dose 10 mg/kg; conditions: in vivo
[11] = Toxicity in nude mouse transfected with mouse KIF5B-RET BaF3 cells assessed as adverse effect at 30 mg/kg, po qd measured after 14 days; format: organism-based; conditions: in vivo, 336 h, time 14 day
[12] = AUC in BALB/c mouse at 2 mg/kg, iv measured by LC-MS/MS analysis; format: ADME, organism-based; parameters: dose 2 mg/kg; conditions: in vivo
[13] = Half life in BALB/c mouse at 2 mg/kg, iv measured by LC-MS/MS analysis; format: ADME, organism-based; conditions: in vivo
[14] = system: BaF3; assay: Antitumor activity against mouse KIF5B-RET BaF3 cells xenografted in nude mouse assessed as tumor regression at 1 to 10 mg/kg, po qd measured after 16 days; format: functional, organism-based; conditions: dose 1-10 mg/kg, time 16.0 day
[15] = AUC in nude mouse xenografted with KIF5B-RET BaF3 cells xenografted at 10 mg/kg, po qd for 14 days; format: ADME, organism-based; parameters: time 14 day, dose 10 mg/kg; conditions: in vivo
[16] = Clearance in BALB/c mouse at 2 mg/kg, iv measured by LC-MS/MS analysis; format: ADME, organism-based; conditions: in vivo
[17] = Oral bioavailability in BALB/c mouse at 10 mg/kg measured by LC-MS/MS analysis; format: ADME, organism-based; conditions: in vivo
[18] = fAUC in nude mouse xenografted with KIF5B-RET BaF3 cells xenografted at 10 mg/kg, po qd for 14 days; format: ADME, organism-based; conditions: in vivo, 336 h, time 14 day
[19] = Plasma protein binding in mouse at 5 uM measured after 16 hrs by LC-MS/MS based rapid equilibrium dialysis analysis; format: ADME, cell-free; conditions: read-out: PPB (converted)
[20] = system: BaF3; conditions: Mus musculus, dose 10.0 mg/kg, time 21.0 day
[21] = AUC in BALB/c mouse at 10 mg/kg, po measured by LC-MS/MS analysis; format: ADME, organism-based; parameters: dose 10 mg/kg; conditions: in vivo
[22] = Volume of distribution at steady state in BALB/c mouse at 2 mg/kg, iv measured by LC-MS/MS analysis; format: ADME, organism-based; conditions: in vivo, read-out: Vdss
[23] = Toxicity in nude mouse transfected with mouse KIF5B-RET BaF3 cells assessed as adverse effect at 10 mg/kg, po qd measured after 14 days; format: organism-based; conditions: in vivo, 336 h, time 14 day
[24] = fCmax in nude mouse xenografted with KIF5B-RET BaF3 cells xenografted at 3 mg/kg, po qd for 4 days; conditions: in vivo, 96 h
[25] = Cmax nude mouse xenografted with KIF5B-RET BaF3 cells xenografted at 3 mg/kg, po qd for 14 days; format: ADME, organism-based; parameters: route oral, time 14 day, dose 3 mg/kg; conditions: in vivo
[26] = fAUC in nude mouse xenografted with KIF5B-RET BaF3 cells xenografted at 3 mg/kg, po qd for 4 days; conditions: in vivo, 96 h
[27] = system: BaF3; assay: Antitumor activity against mouse KIF5B-RET BaF3 cells xenografted in nude mouse assessed as tumor regression at 3 mg/kg, po qd measured after 12 days; conditions: time 12.0 day
[28] = AUC in nude mouse xenografted with KIF5B-RET BaF3 cells xenografted at 3 mg/kg, po qd for 14 days; format: ADME, organism-based; parameters: time 14 day, dose 3 mg/kg; conditions: in vivo
[29] = target: Bcr/Abl fusion protein (Homo sapiens, UniProt P00519); assay: Inhibition of BCR-ABL (unknown origin) expressed in mouse BaF3 cells assessed as reduction in cell proliferation incubated for 48 hrs by cell proliferation assay; format: cell-based
[30] = fAUC in nude mouse xenografted with KIF5B-RET BaF3 cells xenografted at 60 mg/kg, po qd for 14 days; format: ADME, organism-based; conditions: in vivo, 336 h, time 14 day
[31] = system: BaF3; assay: Antitumor activity against mouse KIF5B-RET BaF3 cells xenografted in nude mouse assessed as tumor regression at 60 mg/kg, po qd measured after 14 days; format: functional, organism-based; conditions: time 14.0 day
[32] = fCmax in nude mouse xenografted with KIF5B-RET BaF3 cells xenografted at 60 mg/kg, po qd for 14 days; format: ADME, organism-based; conditions: in vivo, 336 h, time 14 day
[33] = Cmax in nude mouse xenografted with KIF5B-RET BaF3 cells xenografted at 60 mg/kg, po qd for 14 days; format: ADME, organism-based; parameters: route oral, time 14 day, dose 60 mg/kg; conditions: in vivo
[34] = Toxicity in nude mouse transfected with mouse KIF5B-RET BaF3 cells assessed as adverse effect at 10 to 60 mg/kg, po qd measured after 14 days; format: organism-based; conditions: in vivo, 336 h, dose 10-60 mg/kg, time 14 day
[35] = AUC in nude mouse xenografted with KIF5B-RET BaF3 cells xenografted at 60 mg/kg, po qd for 14 days; format: ADME, organism-based; parameters: time 14 day, dose 60 mg/kg; conditions: in vivo
[36] = target: Proto-oncogene tyrosine-protein kinase receptor Ret (Mus musculus) (UniProt P35546); assay: In vivo inhibition of RET phosphorylation in mouse KIF5B-RET BaF3 cells transfected in nude mouse […] at 60 mg/kg, po qd measured after 5 hrs; format: functional, organism-based
[37] = Toxicity in nude mouse transfected with mouse KIF5B-RET BaF3 cells assessed as body weight loss at 10 to 60 mg/kg, po qd measured after 14 days; format: organism-based; conditions: in vivo, 336 h, dose 10-60 mg/kg, time 14 day
[38] = target: Proto-oncogene tyrosine-protein kinase receptor Ret (Homo sapiens, UniProt P07949); assay: Inhibition of RET (658 to 1072) (unknown origin) by HTRF assay
[39] = Half life in BALB/c mouse at 13.5 mg/kg, po measured by LC-MS/MS analysis; format: ADME, organism-based; conditions: in vivo
[40] = AUC in BALB/c mouse at 13.5 mg/kg, po measured by LC-MS/MS analysis; format: ADME, organism-based; parameters: dose 13.5 mg/kg; conditions: in vivo
[41] = Clearance in BALB/c mouse at 3.4 mg/kg, iv measured by LC-MS/MS analysis; format: ADME, organism-based; conditions: in vivo
[42] = AUC in BALB/c mouse at 3.4 mg/kg, iv measured by LC-MS/MS analysis; format: ADME, organism-based; parameters: dose 3.4 mg/kg; conditions: in vivo
[43] = Cmax in BALB/c mouse at 13.5 mg/kg, po measured by LC-MS/MS analysis; format: ADME, organism-based; parameters: route oral, dose 13.5 mg/kg; conditions: in vivo
[44] = Half life in BALB/c mouse at 3.4 mg/kg, iv measured by LC-MS/MS analysis; format: ADME, organism-based; conditions: in vivo
[45] = Volume of distribution at steady state in BALB/c mouse at 3.4 mg/kg, iv measured by LC-MS/MS analysis; format: ADME, organism-based; conditions: in vivo, read-out: Vdss
[46] = Cmax in BALB/c mouse at 3.4 mg/kg, iv measured by LC-MS/MS analysis; format: ADME, organism-based; parameters: route intravenous, dose 3.4 mg/kg; conditions: in vivo
[47] = Oral bioavailability in BALB/c mouse at 13.5 mg/kg measured by LC-MS/MS analysis; format: ADME, organism-based; conditions: in vivo

T1 sequence (Q12809 whole entry): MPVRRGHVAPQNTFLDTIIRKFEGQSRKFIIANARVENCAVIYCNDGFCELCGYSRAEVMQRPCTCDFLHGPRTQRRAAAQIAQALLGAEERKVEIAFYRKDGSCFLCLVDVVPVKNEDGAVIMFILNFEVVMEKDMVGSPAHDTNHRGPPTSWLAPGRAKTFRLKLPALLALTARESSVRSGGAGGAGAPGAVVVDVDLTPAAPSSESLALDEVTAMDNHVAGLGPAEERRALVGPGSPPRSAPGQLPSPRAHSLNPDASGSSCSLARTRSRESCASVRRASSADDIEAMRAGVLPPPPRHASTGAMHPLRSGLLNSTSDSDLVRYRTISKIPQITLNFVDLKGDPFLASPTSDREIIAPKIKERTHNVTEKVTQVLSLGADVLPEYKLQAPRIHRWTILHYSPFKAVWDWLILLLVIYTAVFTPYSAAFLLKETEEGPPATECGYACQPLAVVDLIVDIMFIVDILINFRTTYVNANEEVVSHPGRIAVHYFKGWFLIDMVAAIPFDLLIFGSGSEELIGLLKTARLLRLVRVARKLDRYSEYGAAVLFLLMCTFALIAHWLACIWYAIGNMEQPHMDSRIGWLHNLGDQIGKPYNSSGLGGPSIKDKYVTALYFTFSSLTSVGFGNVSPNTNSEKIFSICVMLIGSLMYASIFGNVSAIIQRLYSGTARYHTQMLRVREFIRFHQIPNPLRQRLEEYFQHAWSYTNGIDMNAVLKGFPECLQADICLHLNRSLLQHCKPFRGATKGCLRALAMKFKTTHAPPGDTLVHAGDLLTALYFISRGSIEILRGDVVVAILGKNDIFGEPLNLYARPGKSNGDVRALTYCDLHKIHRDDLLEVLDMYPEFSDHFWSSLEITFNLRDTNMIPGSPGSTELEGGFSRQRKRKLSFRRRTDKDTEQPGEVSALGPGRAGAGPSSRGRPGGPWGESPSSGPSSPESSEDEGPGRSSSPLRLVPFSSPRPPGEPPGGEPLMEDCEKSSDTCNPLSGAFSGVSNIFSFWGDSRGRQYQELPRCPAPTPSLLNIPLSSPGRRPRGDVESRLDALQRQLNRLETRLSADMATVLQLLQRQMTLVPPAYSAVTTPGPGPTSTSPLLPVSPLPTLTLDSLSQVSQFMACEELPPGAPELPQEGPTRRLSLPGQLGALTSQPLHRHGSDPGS
Bcr/Abl fusion protein, sequence (P00519 whole entry, the tested form may be a part): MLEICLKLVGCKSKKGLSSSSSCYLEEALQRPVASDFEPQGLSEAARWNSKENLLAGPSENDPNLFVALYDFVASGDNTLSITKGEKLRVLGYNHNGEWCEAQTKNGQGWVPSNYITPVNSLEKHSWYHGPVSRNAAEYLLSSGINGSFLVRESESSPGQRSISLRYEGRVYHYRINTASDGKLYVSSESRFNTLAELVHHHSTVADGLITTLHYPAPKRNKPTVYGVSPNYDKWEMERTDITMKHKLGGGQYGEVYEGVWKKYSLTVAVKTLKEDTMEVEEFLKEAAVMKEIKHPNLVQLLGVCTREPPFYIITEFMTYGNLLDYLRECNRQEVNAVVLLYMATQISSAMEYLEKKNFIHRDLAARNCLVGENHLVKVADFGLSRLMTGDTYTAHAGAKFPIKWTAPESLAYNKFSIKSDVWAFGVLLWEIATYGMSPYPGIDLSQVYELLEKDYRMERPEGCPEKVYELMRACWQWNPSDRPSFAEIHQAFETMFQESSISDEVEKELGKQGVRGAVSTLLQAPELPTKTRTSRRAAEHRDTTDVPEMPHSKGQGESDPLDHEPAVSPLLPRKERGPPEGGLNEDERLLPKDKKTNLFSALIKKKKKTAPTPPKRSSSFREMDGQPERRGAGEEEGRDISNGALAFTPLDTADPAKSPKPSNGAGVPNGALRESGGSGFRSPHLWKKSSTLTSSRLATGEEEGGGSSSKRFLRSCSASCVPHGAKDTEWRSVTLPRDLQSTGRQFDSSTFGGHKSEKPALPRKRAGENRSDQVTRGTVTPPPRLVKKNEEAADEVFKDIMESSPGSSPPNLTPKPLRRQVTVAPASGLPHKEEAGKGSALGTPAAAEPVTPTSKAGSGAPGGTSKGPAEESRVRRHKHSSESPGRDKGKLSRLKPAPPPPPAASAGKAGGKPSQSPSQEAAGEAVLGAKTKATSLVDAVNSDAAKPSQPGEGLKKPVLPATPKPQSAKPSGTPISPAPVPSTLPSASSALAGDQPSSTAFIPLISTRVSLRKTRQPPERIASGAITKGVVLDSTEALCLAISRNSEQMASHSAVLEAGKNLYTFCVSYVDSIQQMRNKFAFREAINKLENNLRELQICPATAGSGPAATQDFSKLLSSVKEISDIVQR
Bcr/Abl fusion protein, sequence (P11274 whole entry, further chain, the tested form may be a part): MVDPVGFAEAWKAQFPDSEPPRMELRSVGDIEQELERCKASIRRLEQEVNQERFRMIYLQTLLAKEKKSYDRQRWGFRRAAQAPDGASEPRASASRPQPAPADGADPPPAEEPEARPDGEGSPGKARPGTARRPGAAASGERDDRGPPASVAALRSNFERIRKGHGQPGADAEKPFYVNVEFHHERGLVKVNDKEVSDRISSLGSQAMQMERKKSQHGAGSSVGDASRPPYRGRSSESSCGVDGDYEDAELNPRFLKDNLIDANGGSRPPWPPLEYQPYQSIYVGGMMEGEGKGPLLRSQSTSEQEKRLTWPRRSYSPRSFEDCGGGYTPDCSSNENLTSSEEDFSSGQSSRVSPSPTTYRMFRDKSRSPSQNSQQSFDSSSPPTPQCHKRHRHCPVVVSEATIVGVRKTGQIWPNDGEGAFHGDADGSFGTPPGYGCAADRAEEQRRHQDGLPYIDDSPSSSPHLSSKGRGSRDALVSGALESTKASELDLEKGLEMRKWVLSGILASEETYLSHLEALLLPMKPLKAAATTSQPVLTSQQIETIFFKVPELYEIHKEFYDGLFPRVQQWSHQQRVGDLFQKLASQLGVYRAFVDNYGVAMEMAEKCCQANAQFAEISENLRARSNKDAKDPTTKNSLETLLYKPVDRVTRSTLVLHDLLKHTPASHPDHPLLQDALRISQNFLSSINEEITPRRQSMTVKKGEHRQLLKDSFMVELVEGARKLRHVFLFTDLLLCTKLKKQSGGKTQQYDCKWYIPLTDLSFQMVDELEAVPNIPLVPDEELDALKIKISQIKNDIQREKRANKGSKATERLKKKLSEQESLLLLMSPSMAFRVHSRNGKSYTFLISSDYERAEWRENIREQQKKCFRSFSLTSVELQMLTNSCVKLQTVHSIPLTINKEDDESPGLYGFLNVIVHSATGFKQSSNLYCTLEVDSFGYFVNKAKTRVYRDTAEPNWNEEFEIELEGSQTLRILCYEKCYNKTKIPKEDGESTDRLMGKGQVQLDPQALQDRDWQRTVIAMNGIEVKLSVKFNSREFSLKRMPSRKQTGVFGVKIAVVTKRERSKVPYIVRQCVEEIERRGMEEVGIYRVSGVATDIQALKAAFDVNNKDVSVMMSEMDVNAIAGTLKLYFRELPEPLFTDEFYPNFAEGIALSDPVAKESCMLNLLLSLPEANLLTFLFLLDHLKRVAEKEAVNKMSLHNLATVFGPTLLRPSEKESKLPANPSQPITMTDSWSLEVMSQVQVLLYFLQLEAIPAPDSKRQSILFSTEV
Proto-oncogene tyrosine-protein kinase receptor Ret (Mus musculus), sequence (P35546 whole entry): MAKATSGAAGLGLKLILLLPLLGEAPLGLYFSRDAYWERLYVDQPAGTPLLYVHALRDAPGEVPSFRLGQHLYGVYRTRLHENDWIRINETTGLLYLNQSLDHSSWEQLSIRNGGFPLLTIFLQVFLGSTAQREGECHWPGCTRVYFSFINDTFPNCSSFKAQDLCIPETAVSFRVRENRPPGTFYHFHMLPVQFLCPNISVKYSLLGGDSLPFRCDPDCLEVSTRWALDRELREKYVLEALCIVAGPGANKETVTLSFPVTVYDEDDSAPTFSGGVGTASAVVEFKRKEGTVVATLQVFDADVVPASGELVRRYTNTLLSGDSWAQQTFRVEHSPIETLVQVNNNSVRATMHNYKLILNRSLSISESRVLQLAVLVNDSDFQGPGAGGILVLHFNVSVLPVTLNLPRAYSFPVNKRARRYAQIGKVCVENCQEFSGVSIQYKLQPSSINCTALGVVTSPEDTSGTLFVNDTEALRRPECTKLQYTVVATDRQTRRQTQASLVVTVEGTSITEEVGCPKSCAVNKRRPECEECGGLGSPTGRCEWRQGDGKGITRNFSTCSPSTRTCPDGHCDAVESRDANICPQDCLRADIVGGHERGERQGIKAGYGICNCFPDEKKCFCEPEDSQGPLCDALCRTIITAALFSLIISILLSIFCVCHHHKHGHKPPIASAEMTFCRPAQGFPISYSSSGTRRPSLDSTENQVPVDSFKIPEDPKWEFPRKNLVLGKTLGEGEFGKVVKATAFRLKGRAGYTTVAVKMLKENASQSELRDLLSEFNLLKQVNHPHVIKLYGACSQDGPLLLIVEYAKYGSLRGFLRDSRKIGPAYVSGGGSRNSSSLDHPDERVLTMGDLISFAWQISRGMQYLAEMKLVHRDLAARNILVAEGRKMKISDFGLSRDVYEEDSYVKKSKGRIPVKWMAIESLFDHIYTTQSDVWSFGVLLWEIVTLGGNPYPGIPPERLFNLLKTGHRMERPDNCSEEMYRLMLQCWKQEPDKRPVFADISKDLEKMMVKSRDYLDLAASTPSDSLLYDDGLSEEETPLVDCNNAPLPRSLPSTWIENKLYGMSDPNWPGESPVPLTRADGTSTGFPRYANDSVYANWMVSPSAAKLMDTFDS

Structure (SMILES) | half-life [5] [h] | Cmax [6] [µM] | Cmax [7] [µM] | IC50 [9] [µM] | AUC [12] [µM·h] | half-life [13] [h] | clearance [16] [mL/min/kg] | bioavailability [17] [%] | fraction unbound at 16 h, 5 µM [19] | AUC [21] [µM·h] | Vd [22] [L/kg] | also measured
COC(=O)NC12CCC(n3cc(-c4cc(N)c(Cl)cc4F)c4c(N)ncnc43)(CC1)CC2 | 19 | 3.5 | 7.9 | 4.1 | 40 | 16 | 1.8 | 78 | 0.0065 | 160 | 2.4 | Activity [1]: Active; fCmax [2]: 0.055 µM; IC50 [3]: > 30 µM; Activity [4]: Active; IC50 [8]: 6 µM; Cmax [10]: 8.4 µM; Activity [11]: Non-Toxic; Activity [14]: Active; AUC at 336 h [15]: 136 µM·h; fAUC [18]: 0.9 µM·h; inhibition [20]: Active
Nc1ncnc2c1c(-c1cccc(O)c1)cn2[C@H]1C[C@@H](CO)C1 |  |  |  |  |  |  |  |  |  |  |  | IC50 [29]: 0.043 µM
CC(=O)N1CCN([C@H]2C[C@@H](n3cc(-c4cc(O)ccc4F)c4c(N)ncnc43)C2)CC1 |  |  |  |  |  |  |  |  |  |  |  | IC50 [38]: 0.00054 µM; half-life [39]: 1.3 h; AUC [40]: 0.3 µM·h; clearance [41]: 65 mL/min/kg; AUC [42]: 2 µM·h; Cmax [43]: 0.2 µM; half-life [44]: 1.6 h; IC50 [29]: 4.2 µM; Vd [45]: 1.4 L/kg; Cmax [46]: 6.4 µM; bioavailability [47]: 4%
CC(=O)N1CCN([C@H]2C[C@@H](n3cc(-c4cccc(O)c4)c4c(N)ncnc43)C2)CC1 |  |  |  | > 10 |  |  |  |  |  |  |  | 
CC(=O)N1CCN([C@H]2C[C@@H](n3cc(-c4ccc(O)cc4)c4c(N)ncnc43)C2)CC1 |  |  |  | > 10 |  |  |  |  |  |  |  | 
COc1cc(-c2cn([C@H]3C[C@@H](N4CCN(C(C)=O)CC4)C3)c3ncnc(N)c23)ccc1Cl |  |  |  | > 10 |  |  |  |  |  |  |  | 

Further lines, with some results ahead:

half-life [5] [h] | Cmax [6] [µM] | Cmax [7] [µM] | IC50 [9] [µM] | AUC [12] [µM·h] | half-life [13] [h] | clearance [16] [mL/min/kg] | bioavailability [17] [%] | fraction unbound at 16 h, 5 µM [19] | AUC [21] [µM·h] | Vd [22] [L/kg] | Structure (SMILES) | also measured
22 | 5.6 | 9.5 | 2.6 | 54 | 10 | 1.4 | 58 | 0.0042 | 160 | 1.1 | COC(=O)NC12CCC(n3cc(-c4ccc(Cl)c(N)c4)c4c(N)ncnc43)(CC1)CC2 | IC50 [3]: 9.9 µM; IC50 [8]: 3 µM; Activity [11]: Non-Toxic; Activity [23]: Non-Toxic; fCmax [24]: 0.031 µM; Cmax [25]: 7.4 µM; fAUC [26]: 0.45 µM·h; Activity [27]: Active; AUC at 336 h [28]: 106 µM·h
 |  |  | > 10 |  |  |  |  |  |  |  | CC(=O)N1CCN([C@H]2C[C@@H](n3cc(-c4ccccc4O)c4c(N)ncnc43)C2)CC1 | 
 |  |  | 1.6 |  |  |  |  |  |  |  | Nc1ncnc2c1c(-c1cccc(O)c1)cn2C1CCCC1 | 
2.4 | 5.1 | 3.8 | 4.6 | 5 | 1.2 | 15 | 48 | 0.356 | 12 | 1.3 | CC(=O)N1CCN([C@H]2C[C@@H](n3cc(-c4ccc(Cl)c(N)c4)c4c(N)ncnc43)C2)CC1 | fAUC [30]: 41 µM·h; Activity [31]: Active; fCmax [32]: 6.8 µM; Cmax [33]: 19 µM; Activity [34]: Non-Toxic; AUC at 336 h [35]: 115 µM·h; inhibition [36]: Active; Activity [37]: Non-Toxic
3.7 | 14 | 10 | 4.6 | 41 | 3 | 1.9 | 60 | 0.031 | 120 | 0.37 | COC(=O)N[C@H]1CC[C@@H](n2cc(-c3ccc(Cl)c(N)c3)c3c(N)ncnc32)CC1 | Activity [1]: Active; fCmax [2]: 0.26 µM; IC50 [3]: 25 µM; IC50 [8]: 5.3 µM; Cmax [10]: 8.3 µM; Activity [23]: Non-Toxic; AUC at 336 h [15]: 50 µM·h; fAUC [18]: 1.6 µM·h
 |  |  | 3.7 |  |  |  |  |  |  |  | CC(=O)N1CCN([C@H]2C[C@@H](n3cc(-c4ccc(Cl)c(O)c4)c4c(N)ncnc43)C2)CC1 | 

Source: ChEMBL document CHEMBL4831559, “Antitarget Selectivity and Tolerability of Novel Pyrrolo[2,3-d]pyrimidine RET Inhibitors” (ACS Med Chem Lett, 2021)
